Measurements reported in patent US20260191863A1, “PYRROLOPYRIMIDINE COMPOSITIONS FOR TREATMENT OF ITK MEDIATED CONDITIONS” (ACLARIS THERAPEUTICS, INC., priority 2022, published 2026).
Values joined by “and” are separate entries in the source; they are usually repeats but may differ in a detail not shown here. Identical values can stand only once. Like-named read-outs stand apart in the source and are kept apart here.

Tests used:
[1] = Phase 1 single ascending dose (SAD) study: pharmacokinetics, food effect, formulation bridging; type: in vivo, human; details: for AUC(0-t): read-out: AUC0-24; for Vd/F: read-out: Vz/F
Experimental: (§1) Type of Study—This was an FIH, randomized, observer-blind, placebo-controlled study designed to evaluate the safety, tolerability, PK, and PD of Compound I in healthy subjects. The study consisted of: single ascending dose (SAD) cohorts (1-80 mg/day) plus formulation bridging and food effect (FE) cohorts.
(§2) Approximately 64 male and female subjects were enrolled into 8 planned cohorts in the SAD study. In each cohort, a total of 8 subjects were randomized to receive a single oral capsule dose of Compound I (n=6) or placebo (n=2) in the morning with approximately 240 mL of water after an overnight fast of at least 8 hours.
Cohort 4 was an FE (food effect) cohort where subjects received Compound I capsules or placebo, fasted on Day 1 and Compound I or placebo after a high-fat, high-calorie breakfast on Day 8 after a 7-day washout period.
Cohort 5 was a formulation bridging cohort where subjects will receive Compound I capsules or placebo on Day 1 and Compound I tablets or placebo on Day 8 after a 7-day washout period.
The dosage form of Compound I in Cohorts 6, 7, and 8 were capsules and the subjects will receive a single oral dose of Compound I (n=6) capsules or placebo (n=2) on Day 1 after an overnight fast of at least 8 hours.

[2] = Phase 1 SAD study: safety and tolerability; type: in vivo, human
Experimental: Primary Endpoints—Number and percentage of adverse events (AEs) and serious adverse events (SAEs); mean change from baseline in laboratory values, vital signs, and electrocardiograms (ECGs) abnormalities.
as §1, §2

ITK (IL2 mRNA) = assay: SAD ex vivo PD: αCD3/αCD28 stimulated IL2 mRNA production; type: in vivo; details: Homo sapiens
Excerpt: (§3) Secondary Endpoints—Compound I plasma concentrations. Mean change from baseline in ex vivo stimulated pSTAT5 and pSTAT1 (signal transducer and activator of transcription); and in ex vivo stimulated IFNγ mRNA (interferon gamma messenger ribonucleic acid).
(§4) Summary of SAD data: FIGS. 4-8 and 9-13 show the SAD dose response, SAD exposure response, and SAD calculated response at Cmax by dose respectively for ITK (IL2 mRNA), ITK (IFNγ mRNA), JAK3 (pSTAT5, lymph), JAK3 (pSTAT5, CD3′ T), and ITK & JAK (IFNγ protein). Clinical and pre-clinical IC50 data for ITK (IL2 mRNA), ITK (IFNγ mRNA), JAK3 (pSTAT5, lymph), JAK3 (pSTAT5, CD3^+ T), and ITK & JAK (IFNγ protein) from the SAD study is shown in table 4.

ITK (IFNγ mRNA) [3] = assay: SAD ex vivo PD: αCD3/αCD28 stimulated IFNγ mRNA production; type: in vivo; details: Homo sapiens; SAD study; read-out: Clinical EC50
Excerpt: as §3, §4

ITK (IFNγ mRNA) [4] = assay: Pre-clinical αCD3/αCD28 stimulated IFNγ mRNA; type: cell-based; details: Homo sapiens
ITK & JAK (IFNγ protein) = assay: Pre-clinical human whole blood αCD3 + IL-15/IFNγ (18 hr); type: cell-based
[5] = 13 week toxicology and toxicokinetic study in rats; type: in vivo, rat
Excerpt: Purpose: Evaluation of toxicity and toxicokinetic (TK) for Compound I, following daily dosing for 13 weeks.

JAK2 = target: T1, JAK2 (Homo sapiens, UniProt O60674); assay: Cell IC50 JAK2; type: cell-based
T1 construct: endogenous in cells
T1 sequence (O60674 whole entry): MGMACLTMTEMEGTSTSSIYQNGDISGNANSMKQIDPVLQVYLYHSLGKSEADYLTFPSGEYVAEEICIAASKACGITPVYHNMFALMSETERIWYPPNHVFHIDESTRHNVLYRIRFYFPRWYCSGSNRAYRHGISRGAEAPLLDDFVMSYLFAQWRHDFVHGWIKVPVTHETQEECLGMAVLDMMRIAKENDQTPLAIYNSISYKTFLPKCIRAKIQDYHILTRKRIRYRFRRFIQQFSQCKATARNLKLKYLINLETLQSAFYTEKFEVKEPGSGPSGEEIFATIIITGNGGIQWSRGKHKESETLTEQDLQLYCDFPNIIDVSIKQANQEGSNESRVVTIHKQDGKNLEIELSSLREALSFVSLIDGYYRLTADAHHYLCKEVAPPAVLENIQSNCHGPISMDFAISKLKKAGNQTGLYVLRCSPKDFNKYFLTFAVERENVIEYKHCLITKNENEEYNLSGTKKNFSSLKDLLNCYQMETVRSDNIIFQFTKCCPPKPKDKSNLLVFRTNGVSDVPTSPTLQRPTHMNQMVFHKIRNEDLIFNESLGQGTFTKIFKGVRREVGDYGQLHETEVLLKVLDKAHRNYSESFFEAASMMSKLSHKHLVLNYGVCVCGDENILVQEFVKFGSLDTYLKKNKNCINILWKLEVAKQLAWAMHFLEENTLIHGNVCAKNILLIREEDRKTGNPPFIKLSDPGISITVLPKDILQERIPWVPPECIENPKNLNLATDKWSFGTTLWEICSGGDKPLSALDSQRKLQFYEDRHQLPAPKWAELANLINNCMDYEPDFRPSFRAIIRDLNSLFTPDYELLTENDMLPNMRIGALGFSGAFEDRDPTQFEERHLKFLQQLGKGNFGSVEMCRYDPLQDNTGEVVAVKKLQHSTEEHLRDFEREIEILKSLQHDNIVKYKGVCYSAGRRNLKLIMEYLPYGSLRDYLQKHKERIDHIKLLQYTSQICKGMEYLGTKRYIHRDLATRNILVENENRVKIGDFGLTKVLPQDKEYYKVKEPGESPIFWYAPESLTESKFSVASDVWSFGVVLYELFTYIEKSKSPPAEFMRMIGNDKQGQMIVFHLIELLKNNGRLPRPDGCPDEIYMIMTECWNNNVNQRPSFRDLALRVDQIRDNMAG

[6] = both sexes, human, in vivo, po, 1 mg, single oral dose 1 mg, capsule, fasted
[7] = both sexes, human, in vivo, po, 3 mg, single oral dose 3 mg, capsule, fasted
[8] = both sexes, human, in vivo, po, 5 mg, single oral dose 5 mg, capsule, fasted
[9] = both sexes, human, in vivo, po, 15 mg, single oral dose 15 mg, capsule, fasted
[10] = both sexes, human, in vivo, po, 15 mg, single oral dose 15 mg, capsule, fed (high-fat, high-calorie breakfast)
[11] = both sexes, human, in vivo, po, 25 mg, single oral dose 25 mg, capsule, fasted
[12] = both sexes, human, in vivo, po, 25 mg, single oral dose 25 mg, tablet
[13] = both sexes, human, in vivo, po, 50 mg, single oral dose 50 mg, capsule, fasted
[14] = both sexes, human, in vivo, po, 80 mg, single oral dose 80 mg, capsule, fasted
[15] = single oral dose 15 mg, capsule, fasted
[16] = single oral dose 15 mg, capsule, fed (high-fat, high-calorie breakfast)

Compound: C=CC(=O)N1C[C@H](Nc2ncnc3[nH]cc([C@H]4CC4(F)F)c23)CC[C@@H]1C [Compound I, 1-((2S,5R)-5-((5-((R)-2,2-difluorocyclopropyl)-7H-pyrrolo[2,3-d]pyrimidin-4-yl)amino)-2-methylpiperidin-1-yl)prop-2-en-1-one]
- Difference in PK parameters between capsule and tablet formulation ([1]; 25 mg single dose): No significant difference
- Plasma concentration dose dependence ([1]; SAD): increased in a dose-dependent manner
- Time to peak plasma concentration after dosing ([1]; SAD): ≤ 2 h
- Exposure dose proportionality (Cmax and AUC) ([1]; SAD, 1-80 mg single dose): dose-proportional
- half-life ([1]; both sexes, human, in vivo, oral, SAD, 1-80 mg single dose, read-out: Half-life (range across doses)): 1.5 to 2.5 h
- Tmax ([1]; both sexes, human, in vivo, oral, SAD, 1-80 mg single dose, read-out: Tmax (range across doses)): 0.7 to 1.2 h
- AUC(0-inf) [1, 6]: 5.95 ng·h/mL
- Cmax [1, 6]: 2.71 ng/mL
- AUC(0-t) [1, 6]: 5.95 ng·h/mL
- half-life ([1]; both sexes, human, in vivo, po, 1 mg, single oral dose 1 mg, capsule, fasted, read-out: T1/2 (converted)): 1.51 h
- Tmax ([1]; both sexes, human, in vivo, po, 1 mg, single oral dose 1 mg, capsule, fasted, read-out: Tmax): 0.674 h
- Vd/F [1, 6]: 384 L
- AUC(0-inf) [1, 7]: 15.8 ng·h/mL
- Cmax [1, 7]: 5.9 ng/mL
- AUC(0-t) [1, 7]: 15.4 ng·h/mL
- half-life ([1]; both sexes, human, in vivo, po, 3 mg, single oral dose 3 mg, capsule, fasted, read-out: T1/2 (converted)): 1.53 h
- Tmax ([1]; both sexes, human, in vivo, po, 3 mg, single oral dose 3 mg, capsule, fasted, read-out: Tmax): 0.757 h
- Vd/F [1, 7]: 419 L
- AUC(0-inf) [1, 8]: 33.5 ng·h/mL
- Cmax [1, 8]: 11.9 ng/mL
- AUC(0-t) [1, 8]: 33.1 ng·h/mL
- half-life ([1]; both sexes, human, in vivo, po, 5 mg, single oral dose 5 mg, capsule, fasted, read-out: T1/2 (converted)): 1.53 h
- Tmax ([1]; both sexes, human, in vivo, po, 5 mg, single oral dose 5 mg, capsule, fasted, read-out: Tmax): 1.07 h
- Vd/F [1, 8]: 331 L
- AUC(0-inf) [1, 9]: 96.7 ng·h/mL
- Cmax [1, 9]: 31.5 ng/mL
- AUC(0-t) [1, 9]: 95.7 ng·h/mL
- half-life ([1]; both sexes, human, in vivo, po, 15 mg, single oral dose 15 mg, capsule, fasted, read-out: T1/2 (converted)): 1.61 h
- Tmax ([1]; both sexes, human, in vivo, po, 15 mg, single oral dose 15 mg, capsule, fasted, read-out: Tmax): 1 h
- Vd/F [1, 9]: 360 L
- AUC(0-inf) [1, 10]: 93.9 ng·h/mL
- Cmax [1, 10]: 17.6 ng/mL
- AUC(0-t) [1, 10]: 105 ng·h/mL
- half-life ([1]; both sexes, human, in vivo, po, 15 mg, single oral dose 15 mg, capsule, fed (high-fat, high-calorie breakfast), read-out: T1/2 (converted)): 1.73 h
- Tmax ([1]; both sexes, human, in vivo, po, 15 mg, single oral dose 15 mg, capsule, fed (high-fat, high-calorie breakfast), read-out: Tmax): 5 h
- Vd/F [1, 10]: 399 L
- AUC(0-inf) [1, 11]: 154 ng·h/mL
- Cmax [1, 11]: 47 ng/mL
- AUC(0-t) [1, 11]: 153 ng·h/mL
- half-life ([1]; both sexes, human, in vivo, po, 25 mg, single oral dose 25 mg, capsule, fasted, read-out: T1/2 (converted)): 1.57 h
- Tmax ([1]; both sexes, human, in vivo, po, 25 mg, single oral dose 25 mg, capsule, fasted, read-out: Tmax): 1.35 h
- Vd/F [1, 11]: 366 L
- AUC(0-inf) [1, 12]: 199 ng·h/mL
- Cmax [1, 12]: 63.6 ng/mL
- AUC(0-t) [1, 12]: 197 ng·h/mL
- half-life ([1]; both sexes, human, in vivo, po, 25 mg, single oral dose 25 mg, tablet, read-out: T1/2 (converted)): 1.75 h
- Tmax ([1]; both sexes, human, in vivo, po, 25 mg, single oral dose 25 mg, tablet, read-out: Tmax): 1.07 h
- Vd/F [1, 12]: 317 L
- AUC(0-inf) [1, 13]: 428 ng·h/mL
- Cmax [1, 13]: 143 ng/mL
- AUC(0-t) [1, 13]: 426 ng·h/mL
- half-life ([1]; both sexes, human, in vivo, po, 50 mg, single oral dose 50 mg, capsule, fasted, read-out: T1/2 (converted)): 1.84 h
- Tmax ([1]; both sexes, human, in vivo, po, 50 mg, single oral dose 50 mg, capsule, fasted, read-out: Tmax): 1.24 h
- Vd/F [1, 13]: 310 L
- AUC(0-inf) [1, 14]: 676 ng·h/mL
- Cmax [1, 14]: 196 ng/mL
- AUC(0-t) [1, 14]: 675 ng·h/mL
- half-life ([1]; both sexes, human, in vivo, po, 80 mg, single oral dose 80 mg, capsule, fasted, read-out: T1/2 (converted)): 2.53 h
- Tmax ([1]; both sexes, human, in vivo, po, 80 mg, single oral dose 80 mg, capsule, fasted, read-out: Tmax): 1.22 h
- Vd/F [1, 14]: 432 L
- Effect of high-calorie, high-fat meal on AUC, bioavailability, T1/2 ([1]; single 15 mg dose): no significant effect
- Reduction of Cmax by a high-calorie, high-fat meal ([1]; single 15 mg dose): 31%
- CL/F ([1]; single oral dose 1 mg, capsule, fasted): 168 L/h
- CL/F ([1]; single oral dose 3 mg, capsule, fasted): 190 L/h
- CL/F ([1]; single oral dose 5 mg, capsule, fasted): 149 L/h
- CL/F [1, 15]: 155 L/h
- Tmax [1, 15]: 1.09 h
- CL/F [1, 16]: 160 L/h
- Tmax [1, 16]: 4.99 h
- CL/F ([1]; single oral dose 25 mg, capsule, fasted): 162 L/h
- CL/F ([1]; single oral dose 25 mg, tablet): 126 L/h
- CL/F ([1]; single oral dose 50 mg, capsule, fasted): 117 L/h
- CL/F ([1]; single oral dose 80 mg, capsule, fasted): 118 L/h
- PK profile (linearity, absorption) ([1]; up to 80 mg single dose): PK was linear and absorption was fast
- Deaths, serious AEs, discontinuations due to AEs ([2]; SAD): no deaths, serious AEs, or discontinuations due to AEs
- Safety and tolerability conclusion ([2]; SAD): safe and well tolerated
- Severity of TEAEs ([2]; SAD): mild and transient
- Transient increase in CK at follow-up ([2]; SAD highest dose group (80 mg)): 2 subjects
- Transient increase in transaminases at follow-up ([2]; SAD highest dose group (80 mg)): 1 subject
- Number of TEAEs in Compound I treated subjects ([2]; SAD, 13 subjects): 14
- Changes in WBC count ([2]; SAD, during treatment and at follow-up): No clinically meaningful changes
- EC50 (ITK (IL2 mRNA); SAD study, read-out: Clinical EC50): 0.0152 µM
- EC50 (ITK (IL2 mRNA); read-out: SAD EC50): 0.0055 µg/mL and 15.2 nM
- EC50 (ITK (IFNγ mRNA) [3]): 0.0127 µM
- EC50 (ITK (IFNγ mRNA) [4]): 0.0173 ± 0.003 µM
- Potency relative to Ritlecitinib, αCD3 + IL-15/IFNγ (18 hr) (ITK & JAK (IFNγ protein)): (3.3 fold*)
- IC50 (ITK & JAK (IFNγ protein); Homo sapiens): 0.0036 µg/mL and 10.1 nM
- EC50 (ITK & JAK (IFNγ protein); Homo sapiens, 18 h, read-out: Human Whole Blood EC50, αCD3 + IL-15/IFNγ (18 hr)): 0.01 µM
- EC50 (ITK & JAK (IFNγ protein); Homo sapiens, read-out: Pre-clinical EC50): 0.0102 ± 0.0041 µM
- EC50 (ITK & JAK (IFNγ protein); human whole blood dual stimulation, read-out: Human Compound I Cp to reach HWB dual stim EC50 (in vitro report)): ≥ 4.19 ng/mL
- Nephrotoxicity ([5]; Compound I toxicity studies): no evidence of nephrotoxicity
- Cmax ([5]; in vivo, 80 mg/kg, rat, NOAEL 80 mpk): 13800 ng/mL
- AUC(0-t) ([5]; in vivo, 80 mg/kg, rat, NOAEL 80 mpk, read-out: AUC0-24 h at NOAEL): 45000 ng·h/mL
- Adverse effects ([5]; rat, 5, 20, 80 mpk, 13 weeks): No adverse effects observed
- No observed adverse effect level ([5]; rat, daily dosing 13 weeks): 80 mpk
- Cell IC50, JAK2 (JAK2): Inactive
